From patent US7781420B2, “Use of clodronic acid for treatment podotrochlosis” (Omnimedic GbR, priority 2005, dated 2010)

Tests used:
[1] = test system: horses who suffer from podotrochlosis; experiment: treatment of podotrochlosis with associated osteoporosis in horses by two to five intramuscular injections; format: in vivo, horse; details: for therapeutic success in the treatment of podotrochlosis with associated osteoporosis: intramuscular injections
Description: To achieve the desired therapeutic success or else prophylactic success, a dosage regimen in which the pharmaceutical is administered by two to five intramuscular injections within a period of up to several days, such as approximately 3 consecutive days, but preferably within one day, must be adhered to. Here, the administration of the pharmaceutical may be effected in a dosage of, per injection, 0.125-2.5 mg, preferably 0.25-1 mg, particularly preferably approximately 0.6 mg of active ingredient/kg body weight. For a horse with a weight of 500 kg, a total dose of 250-2500 mg, preferably 400-1500 mg, especially preferably approximately 800 to 1000 mg of active ingredient, distributed over 2 to 5 injections, preferably 3 injections, is aimed at. With a horse with a weight of 500 kg, it is therefore especially preferable to administer 900 mg of active ingredient, divided over 3 injections of 300 mg each, within one day. The pharmaceutical is injected intramuscularly, preferably into the neck, chest and gluteal muscles of the horse. In the case of 3 injections, it is preferred to administer two injections into the neck muscles (on the left and right side), especially preferably approximately one hand's width under the crest and approximately one hand's width above the scapula, and one injection into the breast muscles. The 2 to 5 injections are expediently given directly one after the other.
After approximately 14 days, a pronounced improvement of the clinical symptoms is observed in nearly all horses. After approximately 4-6 weeks, the clinical picture has stabilized and established such that the therapeutic success can be defined. After approximately 10 to 14 months, the clinical symptoms will, as a rule, deteriorate. The treatment may then be repeated once or more than once, with equally good success. In this manner, the treated horses can be kept free from lameness over several years.
For example, the therapeutic success in a gelding who had suffered from podotrochlosis and who had not been able to be ridden, let alone used as a sports horses for about 3 years was so good after employing the pharmaceutical described in accordance with the invention that the gelding could afterwards be used intensively and successfully for 6 years as a showjumper.

podotrochlosis = details: in vivo; cited from earlier work

## O=P(O)(O)C(Cl)(Cl)P(=O)(O)O [clodronic acid, (dichloromethylene)bis(phosphonic acid)]
[1]; at least 350 horses pretreated with conventional therapies without success
  side effects: without suffering side effects
[1]; horses, after treatment
  time until pronounced improvement of the clinical symptoms is observed in nearly all horses: approximately 14 days
  time until the clinical picture has stabilized and established: 4-6 weeks
[1]; horses
  therapeutic success in the treatment of podotrochlosis with associated osteoporosis: outstanding therapeutic successes
[1]; horses, listed as pharmaceutical described in accordance with the invention
  therapeutic success in the treatment of podotrochlosis with associated osteoporosis: successful therapy
[1]; many of the treated horses, regular use of the pharmaceutical
  freedom from lameness: free from lameness for several years
[1]; single gelding, not able to be ridden for about 3 years before treatment
  time used intensively and successfully as a showjumper after treatment: 6 years

## O=P(O)(O)C(Sc1ccc(Cl)cc1)P(=O)(O)O [tiludronate]
podotrochlosis
  effect on podotrochlosis: healing effect
  side effects: substantial side effects such as colic
